In US6660530B2, “Methods for labeling β-amyloid plaques and neurofibrillary tangles” (The Regents of the University of California, priority 1998, dated 2003):
“Also recorded” adds a separate entry of the source. Each block holds one compound with its values, some of them ahead of it.

Key:
[1] = Standing of the free base at room temperature after neutralization (TLC); assay type: physicochemical; conditions: light yellow oil after NaHCO3 wash
Method: Dichloromethane (10 mL) was added and the solution was washed with saturated NaHCO3 solution, dried, and evaporated in vacuo. A light yellow oil was obtained, which, on standing at room temperature, turned dark red. […] Selected ^1H NMR signals after neutralization: δ2.72 (s, 3H, CH3), 3.09 and 3.35 (t, J=5 Hz, 8H, piperazine), 7.08 (s, 1H, 5-H), 8.02 (s, 1H, 1-H).

[2] = biological target: amyloid plaques in Alzheimer's brain (Homo sapiens, UniProt P05067); conditions: cited from earlier work
Sequence of amyloid plaques in Alzheimer's brain (P05067 672-713 limits assumed): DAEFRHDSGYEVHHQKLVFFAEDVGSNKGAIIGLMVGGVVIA

[3] = tested on: β-amyloid plaques and neurofibrillary tangles; test: In vitro fluorescence labeling of Alzheimer's disease brain tissue sections; assay type: binding, human; conditions: for visualization of neurofibrillary tangles, amyloid peptides and diffuse amyloid: all Alzheimer's disease brain specimens, fluorescence; for fluorescent labeling of amyloid plaques: sections of Alzheimer's disease patient brain, fluorescence microscope
Method: (§1) A 2.1 mg/mL DDNP stock solution was prepared, which was adjusted to 8 mM in 100% ethanol. A DDNP working solution was prepared by diluting the stock solution with distilled water in a ratio of 1:100-1000 (stock solution:distilled water).
(§2) β-amyloid 250 μM (1.25 mg/mL in distilled water) was aggregated at 37° C. for 48 hours. 5 μL were smeared on slides, air-dried and then rehydrated with distilled water. Alternatively, Aβ-positive brain tissue sections were rehydrated with distilled water. DDNP working solution was applied to each slide for 30 minutes at room temperature. The slides were washed three times for five minutes with distilled water. The slides were coverslipped with fluorescent protectant mounding media (Vectashield™, available Vector Labs., Burlingame, Calif.) and observed under a fluorescence microscope with a thioflavin S or FITC filter.
Since DDNP and its derivatives are fluorescent, an evaluation of the ability of [F-18]FDDNP to label β-amyloid plaques and neurofibrillary tangles in vitro was also performed with the same brain specimens.
In FIG. 5, the central image was obtained by immunostaining a forty five micrometer cryostate temporal cortex section of an Alzheimer's disease patient incubated with AT8 (anti-phosphotau) and 10G4 (anti-AB1-15) at 1:800. Insets are adjacent sections of the same Alzheimer's disease brain specimen stained with FDDNP. Images were generated using fluorescent scanning microscopy. Green arrows indicate approximate origin of inset with reference to central immunostaining section.

[4] = biological target: T1, plaque in Tg2576 HuAPPsw transgenic mouse brain (Homo sapiens, UniProt P05067); test: In vitro fluorescence labeling of transgenic mouse brain section; assay type: binding
T1 construct: from tissue; host or cells: brain section of Tg2576 HuAPPsw transgenic mouse
T1 sequence (P05067 672-713 limits assumed): as above
Method: as §2, with “A 2.1 mg/mL DDNP stock solution was prepared, which was adjusted to 8 mM in 100% ethanol. A DDNP working solution was prepared by diluting the stock solution with distilled water in a ratio of 1:100-1000 (stock solution:distilled water). β-amyloid” for “β-amyloid”, “(VectashieldTM,” for “(Vectashield™,”

β-amyloid 1-40 = biological target: T2, β-amyloid 1-40 (Homo sapiens, UniProt P05067); test: Labeling of aggregated β-amyloid dried onto a slide; assay type: binding; conditions: aggregated 8 days at 37° C., dried onto gelatin coated slide
T2 construct: an aliquot of β-amyloid 1-40 was allowed to aggregate
T2 sequence (P05067 672-711 limits assumed): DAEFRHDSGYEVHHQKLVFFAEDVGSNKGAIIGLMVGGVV
Method: as §2, with “β-amyloid 250 μM (1.25 mg/mL in distilled water) was aggregated at 37° C. for 48 hours.” left out

[5] = biological target: T3, aggregated β-amyloid 1-40 injected into rat cortex (Homo sapiens, UniProt P05067); test: In vivo labeling of aggregated β-amyloid injected into rat cortex
T3 construct: an aliquot of β-amyloid 1-40 was allowed to aggregate
T3 sequence (P05067 672-711 limits assumed): as above
Method: β-amyloid 250 μM (1.25 mg/mL in distilled water) was aggregated at 37° C. for 48 hours to produce fibrils confirmed by smears. Three rats were anesthetized. 3 μL of a solution of Aβ fibrils (1.25 μg/μL) were injected unilaterally into the cortex of each rat (Bregma 0, AP-4.1 mm, ML+2.0 mm, DV-3.1 mm). Then 3 μL of phosphate buffered saline (PBS) were injected into the contralateral side of each rat brain as a vehicle control. After injection, the needle remained for 5 minutes to prevent reflux, and then the cranial hole was sealed with bone wax. […]
[…] Additional immersion fixation of rat brain was at 4° C. overnight with PLP fixative. The rat brains were washed with PBS, saturated in 10 and 20% sucrose, and snap frozen in chilled isopentane (−70° C.) with liquid nitrogen. The brains were cryostat sectioned at […] around the needle-track and directly coverslipped with glycerol and fluorescence protectant (Vectashield™).

[6] = Storage of stock solution in the freezer; assay type: physicochemical; conditions: stock in 100% ethanol, used at 1/100 to 1/1,000 dilutions
Method: as §1

[7] = tested on: β-amyloid plaques and neurofibrillary tangles; test: PET imaging of patients after intravenous [F-18]FDDNP; assay type: in vivo, human
Method: A patient was placed in a tomograph to obtain brain dynamic PET images. 8.0 mCi of 2-(1.1-dicyanopropen-2-yl)-6-(2-[^18F]-fluoroethyl)-methylamino)-naphthalene ([F18]FDDNP) (specific activity: 5-12 Ci/micromol; mass:˜1 nanomol), prepared as described in Example 1(f), were injected intravenously into the arm of the patient. Dynamic acquisition data of brain images were recorded simultaneously in forty-seven brain planes for two hours.
Labeling and detection of human β-amyloid plaques and neurofibrillary tangles in vivo were conducted using the following procedures. Ten human subjects, seven Alzheimer's diseased patients (ages 71 to 80) and three control patients (ages 62 to 82) were studied. The patients were positioned supine in an EXACT HR+962 tomograph (Siemens-CTI, Knoxville, Tenn.) with the imaging plane parallel to the orbito-meatal line. Venous catheterization was performed, and then [F-18]FDDNP (5-10 mCi) in human serum albumin (25%) was administered as a bolus via the venous catheter. Sequential emission scans were obtained beginning immediately after [F-18]FDDNP administration using the following scan sequence: six 30 second scans, four 3 minute scans, five 10 minute scans, and three 20 minute scans. Rapid venous blood sampling was performed via the indwelling catheter in two subjects for input function determination and plasma metabolite analysis.
The residence time shown is in reference to that in the pons, an area known to have limited involvement in Alzheimer's disease pathology. The residence time was calculated from the clearance rates of the tracer in affected regions of interest (ROI) and in the pons as:
Residence time=[1/clearance rate for affected ROI]−[1/clearance rate for pons]
Separate ROIs were defined in entorhinal cortex, hippocampus, lateral temporal cortex and pons. The region with the slowest clearance rate was used as the affected ROI in the calculation of the residence time shown in FIG. 4.

[8] = tested on: β-amyloid plaques and neurofibrillary tangles; test: In vitro autoradiography with brain specimens of Alzheimer diseased patients; assay type: binding, human

Compound: CC(=C(C#N)C#N)c1ccc2cc(N3CCNCC3)ccc2c1 [2-[1-(6-piperazino-2-naphthyl)ethylidene]malononitrile]
- stability on standing at room temperature [1]: decomposition

Compound: O=C(O)c1cc(/N=N/c2ccc(-c3ccc(/N=N/c4ccc(O)c(C(=O)O)c4)cc3)cc2)ccc1O [Chrysamine G]
- ability to label amyloid plaques in Alzheimer's brain [2]: weak

- fluorescent labeling of plaque [4]: labeling of a plaque
- fluorescent labeling after formic acid treatment of section through the injection site ([5]; rat): removes fluorescent labeling
- labeling contralateral to the amyloid injection site ([5]; rat, side where no amyloid is present): weak
- passage of the blood brain barrier ([5]; rats): passes the blood brain barrier
- melting point: 154.5 to 155 °C
Compound: CC(=C(C#N)C#N)c1ccc2cc(N(C)C)ccc2c1 [DDNP, 2-(1,1-dicyanopropen-2-yl)-6-dimethylaminonaphthalene]
- visualization of neurofibrillary tangles, amyloid peptides and diffuse amyloid [3]: excellent visualization
- fluorescent labeling of tangles ([3]; cortex of the brain of an Alzheimer's disease patient): weak
- fluorescent labeling of amyloid plaques [3]: able to label amyloid plaques; also recorded: readily labeled amyloid deposits; also recorded: amyloid plaques labeled; also recorded: strong; also recorded: labeling of a single, large plaque with an amyloid core
- fluorescence of labeled aggregated β-amyloid 1-40 (β-amyloid 1-40): fibrillar fluorescence consistent with amyloid
- in vivo fluorescent labeling of injected amyloid ([5]; rat, 100 μL of 640 μM DDNP into the carotid artery, sacrificed after 20 minutes, brain cryosections): fluorescently labeled amyloid at the tip of the need track
- stability of stock solution [6]: can be kept in the freezer for six months and still produce acceptable results

- melting point: 153 to 154 °C
Compound: CC(=O)c1ccc2cc(N3CCN(C(=O)OC(C)(C)C)CC3)ccc2c1 [Example 1(d), tert-Butyl-4-(6-acetyl-2-naphthyl)-1-piperazinecarboxylate]

Compound: CC(=C(C#N)C#N)c1ccc2cc(N(C)CC[18F])ccc2c1 [[F-18]FDDNP]
- visualization of neurofibrillary tangles, amyloid peptides and diffuse amyloid [3]: excellent visualization
- structures stained (FIG. 5 insets) ([3]; temporal cortex sections of an Alzheimer's disease patient, fluorescent scanning microscopy): (1) neuritic plaques, (2) diffuse plaque, (3) vascular amyloid, (4) dense plaques and tangles, and (5) dense tangles
- estimated residence time in reference to pons ([7]; Alzheimer's diseased patients vs control patients, affected ROI with slowest clearance rate): different from values in control patients
- labeling of brain structures / accumulation of label ([7]; human patient, 8.0 mCi intravenously, dynamic PET for two hours): labels brain by structures in a manner consistent with the presence of beta amyloid plaques and neurofibrillary tangles; also recorded: maximum accumulation
- regional clearance from brain ([7]; human, brain areas known to accumulate β-amyloid plaques and neurofibrillary tangles): slower clearance
- crossing of the blood brain barrier ([7]; human, intravenous injection): crosses the blood brain barrier readily in proportion to blood flow
- retention of activity in hippocampus-amygdala-entorhinal cortex ([7]; human, most cases, even patients with low severity of symptoms): high retention
- binding / distribution of activity in autoradiography [8]: Binding was observed in hippocampus, temporal and parietal cortex

Compound: Thioflavin S [reference compound]
- fluorescent labeling of amyloid plaques [3]: labeling of a cored plaque
